Each structure is given as a SMILES string. pIC50: −log10 of the molar value. Numbered stars: 1 amine (or outer) side, 2 acyl side, 3 side chain; on linkers, the order of the positions; unused ones are H or OH. Bridge positions count the residues as written; N and C are the ends. Square brackets hold non-standard residues; d marks the D form. Peptide text beside a SMILES is read from it. * marks the point of attachment. Phe(3-CH2NH2) = O=C([C@H](Cc1cccc(CN[*:3])c1)N[*:1])[*:2]; Phe(2-CONH2) = NC(=O)c1ccccc1C[C@H](N)C(=O)O; X5 = O=C([C@H](Cc1ccc(CO)cc1)N[*:1])[*:2]; Triazol3yl(1,2,4-5-NH2) = Nc1nc(*)n[nH]1; X3 = NCc1ccccc1C[C@H](N[*:1])C(=O)[*:2]; Picolinoyl(5-F) = O=C(c1ccc(F)cn1)*; Orn(iPr) = CC(C)NCCC[C@H](N)C(=O)O; Oxazole2carbonyl = O=C(c1ncco1)*; 3Pal = N[C@@H](Cc1cccnc1)C(=O)O; X4 = O=C(c1ncccc1[N+](=O)[O-])*; Pyrrole2CO = O=C(c1ccc[nH]1)*; Picolinoyl = O=C(c1ccccn1)*; ΔPro = O=C(O)[C@@H]1C=CCN1; Orn = NCCC[C@H](N)C(=O)O; X2 = Cc1n[nH]c(C(=O)*)n1; X11 = O=C(c1ncccc1Cl)*

This is an account of results in patent US9969775B2, “CGRP antagonist peptides” (Ferring B.V., priority 2015, dated 2018).

Assay [1] deals with T1, hCGRP receptor (CALCRL:RAMP1) (Homo sapiens, UniProt O60894+Q16602).
T1 construct: host or cells: GeneBLAzer CALCRL:RAMP1-CRE-bla Freestyle 293F
In words: CGRP receptor antagonist activity measured by cAMP assay (HTRF). The class given is cell-based. As to conditions: agonist human α-CGRP; for Emax: % MPE: percent of the maximal possible effect, read-out: hCGRP-R Efficacy Antag (%) Ave; for pIC50: GeneBLAzer CALCRL:RAMP1-CRE-bla Freestyle 293F cells, 30 minutes, read-out: hCGRP-R IC50 Ave.

The target in assay [2] is T2, hAM2 receptor (CALCRL:RAMP3) (Homo sapiens, UniProt O60896+Q16602).
T2 construct: expressed in transfected cells; host or cells: GeneBLAzer CALCRL:RAMP3-CRE-bla Freestyle 293F
Description: AM2 receptor antagonist activity measured by cAMP assay (HTRF). The conditions noted are these: for Emax: % MPE: percent of the maximal possible effect, read-out: hAM2-R Efficacy Antag (%) Ave; for Emax / pIC50: agonist human adrenomedullin; for pIC50: GeneBLAzer CALCRL:RAMP3-CRE-bla Freestyle 293F cells, read-out: hAM2-R IC50 Ave; for selectivity ratio CGRP/AM2: selectivity ratio for hCGRP over hAM2, calculated from the IC50 values. The format is cell-based.

T2 sequence (Q16602 23-461): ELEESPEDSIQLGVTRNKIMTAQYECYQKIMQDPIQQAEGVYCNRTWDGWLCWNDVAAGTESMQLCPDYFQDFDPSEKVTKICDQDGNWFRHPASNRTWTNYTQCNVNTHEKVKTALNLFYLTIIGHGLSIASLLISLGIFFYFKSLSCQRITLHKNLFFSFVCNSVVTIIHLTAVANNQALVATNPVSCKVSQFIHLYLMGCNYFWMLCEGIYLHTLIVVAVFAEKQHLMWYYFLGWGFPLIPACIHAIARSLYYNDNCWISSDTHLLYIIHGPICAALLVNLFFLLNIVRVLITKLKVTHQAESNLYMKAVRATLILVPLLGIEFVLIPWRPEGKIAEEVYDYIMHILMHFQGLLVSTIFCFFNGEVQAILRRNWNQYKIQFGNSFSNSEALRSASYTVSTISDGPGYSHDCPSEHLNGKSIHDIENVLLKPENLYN
T2 sequence (O60896 24-148): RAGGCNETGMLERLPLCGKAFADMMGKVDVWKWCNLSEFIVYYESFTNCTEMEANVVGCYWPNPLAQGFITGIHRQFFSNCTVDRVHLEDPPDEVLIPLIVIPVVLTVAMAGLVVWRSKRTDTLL
T1 sequence (Q16602 23-461): as the sequence (Q16602 23-461) above
T1 sequence (O60894 27-148): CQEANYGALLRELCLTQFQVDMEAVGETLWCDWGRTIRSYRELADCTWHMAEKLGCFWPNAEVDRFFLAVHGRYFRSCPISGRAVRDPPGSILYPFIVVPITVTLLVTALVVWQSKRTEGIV

As for `CC(C)[C@@H]1NC(=O)[C@H](CC(=O)O)NC(=O)[C@H](CCCNC(=N)N)NC(=O)[C@@H](NC(=O)[C@H](Cc2ccc(O)cc2)NC(=O)[C@H](NC(=O)c2ccc[nH]2)C(C)C)CSSC[C@@H](C(=O)N[C@@H](Cc2cccnc2)C(N)=O)NC(=O)[C@H](Cc2ccccc2)NC(=O)[C@@H]2CCCN2C(=O)CNC1=O` [Compound 49] (Pyrrole2CO-[dV]YCRDVGPFC[3Pal]-NH2; disulfide 3-10), in assay [1], the Emax is 100% and the pIC50 (as a rule, −log10 of the IC50, conventionally taken in molar units) is 9.72. Further, in assay [2], the Emax was 99%, the pIC50 is 7.05 and the “selectivity ratio CGRP/AM2” value was 461.
The matching figures for `CC(C)[C@@H]1NC(=O)[C@H](CC(=O)O)NC(=O)[C@H](CCCNC(=N)N)NC(=O)[C@@H](NC(=O)[C@H](Cc2ccc(O)cc2)NC(=O)[C@H](NC(=O)c2ncccc2[N+](=O)[O-])C(C)C)CSSC[C@@H](C(=O)N[C@@H](Cc2cccnc2)C(N)=O)NC(=O)[C@H](Cc2ccccc2)NC(=O)[C@@H]2CCCN2C(=O)CNC1=O` [Compound 50] (X4-[dV]YCRDVGPFC[3Pal]-NH2; disulfide 3-10): 100%, 9.74, 99%, 8.09 and 46.
As for `CC(C)[C@@H]1NC(=O)[C@H](CC(=O)O)NC(=O)[C@H](CCCNC(=N)N)NC(=O)[C@@H](NC(=O)[C@H](Cc2ccc(O)cc2)NC(=O)[C@H](NC(=O)c2ncccc2Cl)C(C)C)CSSC[C@@H](C(=O)N[C@@H](Cc2cccnc2)C(N)=O)NC(=O)[C@H](Cc2ccccc2)NC(=O)[C@@H]2CCCN2C(=O)CNC1=O` [Compound 51] (X11-[dV]YCRDVGPFC[3Pal]-NH2; disulfide 3-10), in assay [1], the Emax was 100% and the pIC50 is 9.85. In assay [2], the Emax is 100%, the pIC50 was 7.89 and the “selectivity ratio CGRP/AM2” value is listed as 92.
In the case of `CC(C)[C@@H]1NC(=O)[C@H](CC(=O)O)NC(=O)[C@H](CCCNc2nc(N)n[nH]2)NC(=O)[C@@H](NC(=O)[C@H](Cc2ccccc2C(N)=O)NC(=O)[C@H](NC(=O)c2ncco2)C(C)C)CSSC[C@@H](C(=O)N[C@@H](Cc2cccnc2)C(N)=O)NC(=O)[C@H](Cc2cccnc2)NC(=O)[C@@H]2CCCN2C(=O)CNC1=O` [Compound 52, Oxazole-2-carbonyl-D-Val-Phe(2-Cbm)-c(Cys-Orn(Atz)-Asp-Val-Gly-Pro-3Pal-Cys)-3Pal-NH2] (Oxazole2carbonyl-[dV][Phe(2-CONH2)]C[Orn](Triazol3yl(1,2,4-5-NH2))DVGP[3Pal]C[3Pal]-NH2; disulfide 3-10), the Emax in assay [1] was 100%; in assay [2] it was 97%.
Regarding `Cc1n[nH]c(C(=O)N[C@@H](C(=O)N[C@@H](Cc2ccc(O)cc2)C(=O)N[C@H]2CSSC[C@@H](C(=O)N[C@@H](Cc3cccnc3)C(N)=O)NC(=O)[C@H](Cc3ccccc3CN)NC(=O)[C@@H]3CCCN3C(=O)CNC(=O)[C@H](C(C)C)NC(=O)[C@H](CC(=O)O)NC(=O)[C@H](CCCNC(=N)N)NC2=O)C(C)C)n1` [Compound 53, 1H-1,2,4-triazole-5-carbonyl(3-Me)-D-Val-Tyr-c(Cys-Arg-Asp-Val-Gly-Pro-Phe(2-CH2NH2)-Cys)-3Pal-NH2] (X2-[dV]YCRDVGP[X3]C[3Pal]-NH2; disulfide 3-10), in assay [1], the Emax was 100% and the pIC50 was 9.96. In assay [2], the Emax was 98%, the pIC50 is 6.05 and the “selectivity ratio CGRP/AM2” value is 8130.
Consider `CC(C)NCCC[C@@H]1NC(=O)[C@@H](NC(=O)[C@H](Cc2ccccc2C(N)=O)NC(=O)[C@H](NC(=O)c2ccccn2)C(C)C)CSSC[C@@H](C(=O)N[C@@H](Cc2cccnc2)C(N)=O)NC(=O)[C@H](Cc2cccc(CN)c2)NC(=O)[C@@H]2C=CCN2C(=O)CNC(=O)[C@H](C(C)C)NC(=O)[C@H](CC(=O)O)NC1=O` [Compound 54, Picolinoyl-D-Val-Phe(2-Cbm)-c(Cys-Orn(iPr)-Asp-Val-Gly-Dhp-Phe(3-CH2NH2)-Cys)-3Pal-NH2] (Picolinoyl-[dV][Phe(2-CONH2)]C[Orn(iPr)]DVG[ΔPro][Phe(3-CH2NH2)]C[3Pal]-NH2; disulfide 3-10), for which, in assay [1], the Emax is 100% and the pIC50 was 9.77. In addition, in assay [2], the Emax was 99%, the pIC50 was 6.82 and the “selectivity ratio CGRP/AM2” value is 898.
Consider `CC(C)NCCC[C@@H]1NC(=O)[C@@H](NC(=O)[C@H](Cc2ccc(O)cc2)NC(=O)[C@H](NC(=O)c2ccccn2)C(C)C)CSSC[C@@H](C(=O)N[C@@H](Cc2cccnc2)C(N)=O)NC(=O)[C@H](Cc2ccc(CO)cc2)NC(=O)[C@@H]2CCCN2C(=O)CNC(=O)[C@H](C(C)C)NC(=O)[C@H](CC(=O)O)NC1=O` [Compound 55, Picolinoyl-D-Val-Tyr-c(Cys-Orn(iPr)-Asp-Val-Gly-Pro-Phe(4-CH2OH)-Cys)-3Pal-NH2] (Picolinoyl-[dV]YC[Orn(iPr)]DVGP[X5]C[3Pal]-NH2; disulfide 3-10), for which, in assay [1], the Emax is 100% and the pIC50 is 9.74. Moreover, in assay [2], the Emax is 100%, the pIC50 is 6.86 and the “selectivity ratio CGRP/AM2” value is on record as 746.
As for `CC(C)[C@@H]1NC(=O)[C@H](CC(=O)O)NC(=O)[C@H](CCCN)NC(=O)[C@@H](NC(=O)[C@H](Cc2ccc(O)cc2)NC(=O)[C@H](NC(=O)c2ccc(F)cn2)C(C)C)CSSC[C@@H](C(=O)N[C@@H](Cc2cccnc2)C(N)=O)NC(=O)[C@H](Cc2ccc(CO)cc2)NC(=O)[C@@H]2CCCN2C(=O)CNC1=O` [Compound 56, Picolinoyl(5-F)-D-Val-Tyr-c(Cys-Orn-Asp-Val-Gly-Pro-Phe(4-CH2OH)-Cys)-3Pal-NH2] ({Picolinoyl(5-F)}-[dV]YC[Orn]DVGP[X5]C[3Pal]-NH2; disulfide 3-10), in assay [1], the Emax was 100% and the pIC50 is 9.77. In assay [2], the Emax is 100%, the pIC50 is 7.26 and the “selectivity ratio CGRP/AM2” value was 328.
`CC(C)NCCC[C@@H]1NC(=O)[C@@H](NC(=O)[C@H](Cc2ccccc2C(N)=O)NC(=O)[C@H](NC(=O)c2ncco2)C(C)C)CSSC[C@@H](C(=O)N[C@@H](Cc2cccnc2)C(N)=O)NC(=O)[C@H](Cc2ccc(O)cc2)NC(=O)[C@@H]2C=CCN2C(=O)CNC(=O)[C@H](C(C)C)NC(=O)[C@H](CC(=O)O)NC1=O` [Compound 57, Oxazole-2-carbonyl-D-Val-Phe(2-Cbm)-c(Cys-Orn(iPr)-Asp-Val-Gly-Dhp-Tyr-Cys)-3Pal-NH2] (Oxazole2carbonyl-[dV][Phe(2-CONH2)]C[Orn(iPr)]DVG[ΔPro]YC[3Pal]-NH2; disulfide 3-10): in assay [1], the Emax was 100% and the pIC50 was 9.92. Besides, in assay [2], the Emax is 99%, the pIC50 was 6.20 and the “selectivity ratio CGRP/AM2” value is given as 5225.
`CC(C)NCCC[C@@H]1NC(=O)[C@@H](NC(=O)[C@H](Cc2ccccc2C(N)=O)NC(=O)[C@H](NC(=O)c2ncco2)C(C)C)CSSC[C@@H](C(=O)N[C@@H](Cc2cccnc2)C(N)=O)NC(=O)[C@H](Cc2cccnc2)NC(=O)[C@@H]2C=CCN2C(=O)CNC(=O)[C@H](C(C)C)NC(=O)[C@H](CC(=O)O)NC1=O` [Compound 58, Oxazole-2-carbonyl-D-Val-Phe(2-Cbm)-c(Cys-Orn(iPr)-Asp-Val-Gly-Dhp-3Pal-Cys)-3Pal-NH2] (Oxazole2carbonyl-[dV][Phe(2-CONH2)]C[Orn(iPr)]DVG[ΔPro][3Pal]C[3Pal]-NH2; disulfide 3-10): in assay [1], the Emax was 100% and the pIC50 was 9.74. Besides, in assay [2], the Emax was 99%, the pIC50 was 6.32 and the “selectivity ratio CGRP/AM2” value is recorded as 2588.
